Test results as given in publication PMC7204994 (Frontiers in Pharmacology, 2020).

Assays:
LIMK1 [1] = target: T1, LIMK1 (Homo sapiens, UniProt P53667); assay: in vitro GST-cofilin phosphorylation by recombinant LIMK1, Western blot, […] compound; format: biochemical; design: recombinant human LIMK1 (Millipore #14-656)
LIMK1 [2] = target: T1, LIMK1; assay: cell-free LIMK1 biochemical assay; conditions: cited from earlier work

T1 sequence (P53667 whole entry): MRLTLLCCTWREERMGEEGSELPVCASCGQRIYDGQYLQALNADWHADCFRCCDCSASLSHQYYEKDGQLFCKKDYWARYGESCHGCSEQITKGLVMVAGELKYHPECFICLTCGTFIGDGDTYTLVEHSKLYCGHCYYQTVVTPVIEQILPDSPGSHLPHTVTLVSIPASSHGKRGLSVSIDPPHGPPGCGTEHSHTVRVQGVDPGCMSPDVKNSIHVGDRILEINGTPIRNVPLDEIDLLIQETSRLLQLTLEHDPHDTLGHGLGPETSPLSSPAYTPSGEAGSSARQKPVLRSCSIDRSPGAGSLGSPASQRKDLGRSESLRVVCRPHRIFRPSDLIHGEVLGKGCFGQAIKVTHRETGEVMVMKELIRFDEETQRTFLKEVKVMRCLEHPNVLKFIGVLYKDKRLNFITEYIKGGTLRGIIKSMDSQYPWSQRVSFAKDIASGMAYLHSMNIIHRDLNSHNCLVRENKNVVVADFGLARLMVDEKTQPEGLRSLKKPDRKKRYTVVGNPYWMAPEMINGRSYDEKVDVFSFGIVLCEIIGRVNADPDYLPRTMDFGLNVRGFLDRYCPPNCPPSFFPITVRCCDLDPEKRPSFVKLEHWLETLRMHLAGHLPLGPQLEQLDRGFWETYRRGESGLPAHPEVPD

Structure (SMILES)	in vitro GST-cofilin phosphorylation by recombinant LIMK1, Western blot, 10 μM c (LIMK1 [1])	IC50 (LIMK1 [2]) [nM]
Cn1cc(-c2[nH]c3cc(NC(=O)C(N)C4CCCCC4)cc4c3c2C=NNC4=O)cn1 (centres unmarked) [PF0477736]	showed that PF0477736 is indeed able to directly inhibit LIMK	
Cc1c[nH]c2ncnc(-c3ccc(NC(=O)N(CCN)c4ccc(Cl)cc4)c(F)c3)c12 [SR10905, 1-(2-aminoethyl)-1-(4-chlorophenyl)-3-(2-fluoro-4-(5-methyl-7H-pyrrolo[2,3-d]pyrimidin-4-yl)phenyl)urea]		15
